Results: patent US10913727B2, “Modulators of the integrated stress pathway” (Calico Life Sciences LLC, priority 2016, dated 2021)

Test system: HEK293T cells carrying the ATF4 luciferase reporter
Assay: ATF4-Luc assay, in vitro model of Vanishing Cell White Matter Disease (VWMD)
Assay type: cell-based
Conditions: Homo sapiens, HEK-293T, 1 μg/mL tunicamycin, 7 hours, One Glo luminescence
How it was run: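 Reporter cells were stably generated by retroviral transduction and puromycin selection, then seeded at 30,000 cells/well. Next day, cells received 1 μg/mL tunicamycin with 200 nM test compound for 7 h, and luciferase luminescence was read with a one-step reagent. Values reported as EC50.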

SMILES	EC50 [nM]
CCn1cncc1C(=O)NC12CC(NC(=O)COc3ccc(Cl)c(F)c3)(C1)C2 [Compound 775, N-{3-[2-(4-chloro-3-fluorophenoxy)acetamido]bicyclo[1.1.1]pentan-1-yl}-1-ethyl-1H-imidazole-5-carboxamide]	> 2000
Cc1nc(C(=O)NC23CC(NC(=O)COc4ccc(Cl)c(F)c4)(C2)C3)cs1 [Compound 539, N-{3-[2-(4-chloro-3-fluorophenoxy)acetamido]bicyclo[1.1.1]pentan-1-yl}-2-methyl-1,3-thiazole-4-carboxamide]	50 to 250
O=C(COc1ccc(Cl)c(F)c1)NC12CCC(NC(=O)c3ccc(N4CCCC4)cn3)(CC1)CC2O (centres unmarked) [Compound 940, N-{4-[2-(4-chloro-3-fluorophenoxy)acetamido]-3-hydroxybicyclo[2.2.2]octan-1-yl}-5-(pyrrolidin-1-yl)pyridine-2-carboxamide]	50 to 250
CCN(CC)c1cccc(C(=O)NC23CC(NC(=O)COc4ccc(Cl)c(F)c4)(C2)C3)c1 [Compound 543, N-{3-[2-(4-chloro-3-fluorophenoxy)acetamido]bicyclo[1.1.1]pentan-1-yl}-3-(diethylamino)benzamide]	> 2000
CCCCc1ccc(C(=O)NC23CC(NC(=O)COc4ccc(Cl)c(F)c4)(C2)C3)nc1 [Compound 135, 5-butyl-N-{3-[2-(4-chloro-3-fluorophenoxy)acetamido]bicyclo[1.1.1]pentan-1-yl}pyridine-2-carboxamide]	50 to 250
O=C(COc1ccc(Cl)c(F)c1)NC12CCC(NC(=O)c3ccccc3F)(CC1)C[C@@H]2O [Compound 560, N-{(3S)-4-[2-(4-chloro-3-fluorophenoxy)acetamido]-3-hydroxybicyclo[2.2.2]octan-1-yl}-2-fluorobenzamide]	50 to 250
Cc1occc1C(=O)NC12CC(NC(=O)COc3ccc(Cl)c(F)c3)(C1)C2 [Compound 556, N-{3-[2-(4-chloro-3-fluorophenoxy)acetamido]bicyclo[1.1.1]pentan-1-yl}-2-methylfuran-3-carboxamide]	1000 to 2000
O=C(COc1ccc(Cl)c(F)c1)NC12CC(NC(=O)c3ccc4cc(F)ccc4n3)(C1)C2 [Compound 929, N-{3-[2-(4-chloro-3-fluorophenoxy)acetamido]bicyclo[1.1.1]pentan-1-yl}-6-fluoroquinoline-2-carboxamide]	< 50
O=C(COc1ccc(Cl)c(F)c1)NC12CC(NC(=O)c3cnc4ccccn34)(C1)C2 [Compound 258, N-{3-[2-(4-chloro-3-fluorophenoxy)acetamido]bicyclo[1.1.1]pentan-1-yl}imidazo[1,2-a]pyridine-3-carboxamide]	250 to 1000
COc1ncccc1C(=O)NC12CC(NC(=O)COc3ccc(Cl)c(F)c3)(C1)C2 [Compound 809, N-{3-[2-(4-chloro-3-fluorophenoxy)acetamido]bicyclo[1.1.1]pentan-1-yl}-2-methoxypyridine-3-carboxamide]	> 2000
O=C(COCc1cccc(Cl)c1)NC12CC(NC(=O)c3cnc(C(F)F)cn3)(C1)C2 [Compound 947, N-(3-{2-[(3-chlorophenyl)methoxy]acetamido}bicyclo[1.1.1]pentan-1-yl)-5-(difluoromethyl)pyrazine-2-carboxamide]	> 2000
O=C(COc1ccc(C(F)(F)F)nc1)NC12CC(NC(=O)c3ccc(OC(F)(F)F)cn3)(C1)C2 [Compound 454, 5-(trifluoromethoxy)-N-[3-(2-{[6-(trifluoromethyl)pyridin-3-yl]oxy}acetamido)bicyclo[1.1.1]pentan-1-yl]pyridine-2-carboxamide]	50 to 250
CCOc1ncccc1C(=O)NC12CC(NC(=O)COc3ccc(Cl)c(F)c3)(C1)C2 [Compound 861, N-{3-[2-(4-chloro-3-fluorophenoxy)acetamido]bicyclo[1.1.1]pentan-1-yl}-2-ethoxypyridine-3-carboxamide]	> 2000
Cn1cc2c(NC34CC(NC(=O)COc5ccc(Cl)c(F)c5)(C3)C4)nccc2n1 [Compound 492, 2-(4-chloro-3-fluorophenoxy)-N-{3-[(2-methyl-2H-pyrazolo[4,3-c]pyridin-4-yl)amino]bicyclo[1.1.1]pentan-1-yl}acetamide]	50 to 250
